Where two headings read alike, the source gives them in different places.
Experiments:
human HDAC-1 = human HDAC-1 (Homo sapiens, UniProt Q13547); experiment: Inhibition of histone deacetylase enzymatic (HDAC-1) activity; format: biochemical
Description: The following protocol was used to assay the compounds of the invention.
The mixture was pre-incubated for 5 minutes at room temperature. The reaction was started by bringing the temperature to 37° C. and adding 16 μl substrate.

[1] = test system: HCT116 human colon cancer cells; experiment: MTT assay, antiproliferative activity; format: cell-based; conditions: HCT-116, 72 hours
Description: (§1) Table 6C provides data on inhibition of HDAC1 enzyme, on antiproliferative activities (HCT116 human colon cancer cells) of the compounds using 3-[4,5-dimethylthiazol-2-yl-2,5-diphenyltetrazolium]bromide (MTT) assay, as well as induction of p21^WAF1/Cip1 tumor suppressor gene.
Compounds at various concentrations were added to human colon cancer HCT116 cells plated in 96-well plates. Cells were incubated for 72 hours at 37° C. in 5% CO2 incubator. MTT (3-[4,5-dimethylthiazol-2-yl]-2,5 diphenyl tetrazolium bromide, Sigma) was added at a final concentration of 0.5 mg/ml and incubated with the cells for 4 hours before an equal volume of solubilization buffer (50% N,N-dimethylformamide, 20% SDS, pH 4.7) was added onto cultured cells. After overnight incubation, solubilized dye was quantified by colorimetric reading at […] using a reference at 630 nM. OD values were converted to cell numbers according to a standard growth curve of the relevant cell line. The concentration which reduces cell numbers to 50% of those of DMSO-treated cells is determined as MTT IC50,

[2] = test system: p21^WAF1/Cip1 tumor suppressor gene; experiment: p21WAF1/Cip1 assay (p21 promoter-driven luciferase reporter); format: cell-based, human; conditions: reference compound, value designated
Description: as §1
HCT116 cells were stably transfected with reporter plasmids encoding the p21 promoter-driven luciferase. Cells were treated with indicated concentration of HDAC inhibitors for 16 hours before cells were harvested and luciferase activity analyzed. The effective concentration (EC) of MS-275 was designated as 1 uM. The ability of HDAC inhibitor was compared with that of MS-275 (T. Suzuki, et. al J. Med. Chem., 1999, 3001-3003).

[3] = Table 5, Boc-Lys(Ac)-AMC substrate, 37° C., 20 minutes, read-out: HDAC-1 (μM), inhibition of histone deacetylase
[4] = Table 6A, comparative data for planar substituent, read-out: HDAC-1 activity (μm)
[5] = Table 6B, comparative data for planar substituent, read-out: HDAC-1 Activity

Sequence of human HDAC-1 (Q13547 whole entry): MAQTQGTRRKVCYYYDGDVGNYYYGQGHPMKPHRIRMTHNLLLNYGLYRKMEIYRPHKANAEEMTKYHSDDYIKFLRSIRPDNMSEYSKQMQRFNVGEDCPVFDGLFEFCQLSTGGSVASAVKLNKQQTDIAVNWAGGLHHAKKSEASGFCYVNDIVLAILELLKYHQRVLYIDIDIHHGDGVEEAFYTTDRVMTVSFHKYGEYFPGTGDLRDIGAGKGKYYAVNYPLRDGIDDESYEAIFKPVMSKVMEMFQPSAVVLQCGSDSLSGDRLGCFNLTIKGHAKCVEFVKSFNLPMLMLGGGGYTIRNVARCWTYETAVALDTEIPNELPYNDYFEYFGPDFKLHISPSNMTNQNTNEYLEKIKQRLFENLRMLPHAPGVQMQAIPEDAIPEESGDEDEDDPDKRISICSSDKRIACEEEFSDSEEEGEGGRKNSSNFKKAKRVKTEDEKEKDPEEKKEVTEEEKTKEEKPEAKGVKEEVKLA

| Compound | IC50 (human HDAC-1; [3]) [µM] | IC50 (human HDAC-1; Table 6C) [µM] | IC50 [1] [nM] | also measured |
| --- | --- | --- | --- | --- |
| COc1cc(NCc2ccc(/C=C/C(=O)Nc3cc(-c4cccs4)ccc3N)cc2)cc(OC)c1OC [Cpd 67, trans-N-[2-amino-5-(2-thienyl)phenyl]-3-(4-{[(3,4,5-trimethoxyphenyl)amino]methyl}phenyl)acrylamide] | < 1 | – | – | – |
| COc1ccc(NCc2ccc(C(=O)Nc3ccc(Br)cc3N)cc2)cc1OC [Cpd 18, N-(2-amino-4-bromophenyl)-4-{[(3,4-dimethoxyphenyl)amino]methyl}benzamide] | 1 to 20 | – | – | – |
| COc1ccc(NCc2ccc(C(=O)Nc3cc(C(F)(F)F)ccc3N)cc2)cc1OC [A, reference compound] | – | – | – | IC50 (human HDAC-1; [4]): 1 to 20 µM |
| COc1ccc(NCc2ccc(C(=O)Nc3cc(-c4ccoc4)ccc3N)cc2)cc1OC [Cpd 91, N-[2-amino-5-(3-furanyl)phenyl]-4-{[(3,4-dimethoxyphenyl)amino]methyl}benzamide] | – | – | – | IC50 (human HDAC-1): < 1 µM |
| Cc1ccc(S(=O)(=O)Nc2ccc(/C=C/C(=O)Nc3cc(-c4cccs4)ccc3N)cc2)cc1 [Compound 146] | – | < 1 | < 1000 | – |
| Nc1ccc(-c2cccs2)cc1NC(=O)c1ccc2c(c1)OCO2 [Compound 256a] | – | < 1 | < 1000 | – |
| CN1CCN(C(=O)Nc2ccc(C(=O)Nc3cc(-c4cccs4)ccc3N)cc2)CC1 [Compound 164] | – | < 1 | < 1000 | – |
| Nc1ccc(-c2cccs2)cc1NC(=O)c1ccc(CNC(=O)OCc2cccnc2)cc1 [Compound 143a] | – | – | < 1000 | – |
| CN(C)CCOc1ccc2nc(SCc3ccc(C(=O)Nc4cc(-c5cccs5)ccc4N)cc3)[nH]c2c1 [Cpd 50, N-[2-amino-5-(2-thienyl)phenyl]-4[({6-[2-(dimethylamino)ethoxy]-1H-benzimidazol-2-yl}thio)methyl]benzamide] | < 1 | – | – | – |
| COc1ccc(NCc2ccc(C(=O)Nc3cc(/C=C/C(N)=O)ccc3N)cc2)cc1OC [Cpd 88, N-{2-amino-5-[(1E)-3-amino-3-oxoprop-1-en-1-yl]phenyl}-4-{[(3,4-dimethoxyphenyl)amino]methyl}benzamide] | 1 to 20 | – | – | – |
| CCCCc1ccc(N)c(NC(=O)c2ccc(C)cc2)c1 [Cpd 69, N-(2-amino-5-butylphenyl)-4-methylbenzamide] | 1 to 20 | – | – | – |
| COc1cc(NCc2ccc(/C=C/C(=O)Nc3ccccc3N)cc2)cc(OC)c1OC [QQ, reference compound] | – | – | – | IC50 (human HDAC-1; [5]): 1 to 20 µM |
| Nc1ccc(-c2cccs2)cc1NC(=O)c1ccc(F)cc1 [Compound 143b] | – | < 1 | 1000 to 20000 | – |
| Nc1ccc(-c2cccs2)cc1NC(=O)c1ccc(CNc2nccc(-c3cccnc3)n2)cc1 [Cpd 43, N-[2-amino-5-(2-thienyl)phenyl]-4{[(4-pyridin-3-ylpyrimidin-2-yl)amino]methyl}benzamide] | < 1 | – | – | – |
| COc1ccc(NCc2ccc(C(=O)Nc3cc(F)c(F)cc3N)cc2)cc1OC [B, N-(2-amino-4,5-difluorophenyl)-4-{[(3,4-dimethoxyphenyl)amino]methyl}benzamide, reference compound] | 1 to 20 | – | – | – |
| CCCCc1ccc(N)c(NC(=O)c2ccc(CNc3ccc(OC)c(OC)c3)cc2)c1 [Cpd 68, N-(2-amino-5-butylphenyl)-4-{[(3,4-dimethoxyphenyl)amino]methyl}benzamide] | 1 to 20 | – | – | – |

| Compound | IC50 (human HDAC-1; [3]) [µM] | IC50 (human HDAC-1; Table 6C) [µM] | IC50 [1] [nM] | also measured |
| --- | --- | --- | --- | --- |
| COc1cccc(C(=O)Nc2cc(-c3cccs3)ccc2N)c1 [Compound 181] | – | < 1 | < 1000 | – |
| COc1ccc(NCc2ccc(C(=O)Nc3c(N)cccc3N)cc2)cc1OC [Cpd 94, N-[2,6-diaminophenyl]-4-{[(3,4-dimethoxyphenyl)amino]methyl}benzamide] | 1 to 20 | – | – | – |
| COc1ccc(NCc2ccc(C(=O)Nc3csc(-c4ccccc4)c3N)cc2)cc1OC [Cpd 61, N-(4-amino-5-phenyl-3-thienyl)-4-{[(3,4-dimethoxyphenyl)amino]methyl}benzamide] | > 20 | – | – | – |
| COc1cc(C(=O)Nc2cc(-c3cccs3)ccc2N)cc2c1OCO2 [Compound 256c] | – | < 1 | < 1000 | – |
| COc1ccc(NCc2ccc(C(=O)Nc3cc(-c4cccs4)ccc3N)cc2)cc1F [Cpd 12, N-[2-amino-5-(2-thienyl)phenyl]-4{[(3-fluoro-4-methoxyphenyl)amino]methyl}benzamide] | < 1 | – | – | – |
| N#Cc1ccc(C(=O)Nc2cc(-c3cccs3)ccc2N)cc1 [Compound 173] | – | < 1 | 1000 to 20000 | – |
| COc1ccc(NCc2ccc(C(=O)Nc3cc(-c4cccs4)ccc3N)cc2)cc1OC [Cpd 6, N-[2-amino-5-(2-thienyl)phenyl]-4{[(3,4-dimethoxyphenyl)amino]methyl}benzamide] | < 1 | – | – | – |
| COc1ccc(NCc2ccc(C(=O)Nc3ccccc3N)cc2)cc1OC [AAA, reference compound] | – | – | – | IC50 (human HDAC-1; [4]): < 1 µM; IC50 (human HDAC-1; [5]): < 1 µM |
| Nc1ccccc1NC(=O)c1ccc(CNC(=O)OCc2cccnc2)cc1 [MS-275, reference compound] | – | – | – | effective concentration (EC) for p21 induction [2]: 1 µM |
| COc1cc(CN2CCc3ccc(C(=O)Nc4cc(-c5cccs5)ccc4N)cc32)cc(OC)c1OC [Cpd 23, N-[2-amino-5-(2-thienyl)phenyl]-1-(3,4,5-trimethoxybenzyl)indoline-6-carboxamide] | < 1 | – | – | – |
| COc1ccc(NCc2ccc(C(=O)Nc3ccc(-c4cccs4)cc3N)cc2)cc1OC [Cpd 16, N-[2-amino-4-(2-thienyl)phenyl]-4-{[(3,4-dimethoxyphenyl)amino]methyl}benzamide] | 1 to 20 | – | – | – |
| COc1cc(NCc2ccc3oc(C(=O)Nc4cc(-c5cccs5)ccc4N)cc3c2)cc(OC)c1OC [Cpd 29, N-[2-amino-5-(2-thienyl)phenyl]-5-{[(3,4,5-trimethoxyphenyl)amino]methyl}-1-benzofuran-2-carboxamide] | < 1 | – | – | – |
| COc1ccc(NCc2ccc(C(=O)Nc3cc(Cl)c(Cl)cc3N)cc2)cc1OC [Cpd 36, N-(2-Amino-4,5-dichloro-phenyl)-4-[(3,4-dimethoxy-phenylamino)-methyl]-benzamide] | 1 to 20 | – | – | – |
| CC(=O)Oc1ccc(C(=O)Nc2cc(-c3cccs3)ccc2N)cc1 [Compound 184] | – | < 1 | < 1000 | – |
| COc1ccc(NCc2ccc(C(=O)Nc3cc(-c4cccs4)ccc3[N+](=O)[O-])cc2)cc1OC [Cpd 5, 4-[(3,4-dimethoxy-phenylamino)-methyl]-N-(2-nitro-5-thiophen-2-yl-phenyl)-benzamide] | > 20 | – | – | – |
| CCCCc1ccc(NC(=O)c2ccc(C)cc2)c(N)c1 [Cpd 71, N-(2-amino-4-butylphenyl)-4-methylbenzamide] | > 20 | – | – | – |

Second part, led by results:

| IC50 (human HDAC-1; [3]) [µM] | IC50 (human HDAC-1; Table 6C) [µM] | IC50 [1] [nM] | Compound | also measured |
| --- | --- | --- | --- | --- |
| < 1 | – | – | COc1ccc(NCc2ccc(C(=O)Nc3cc(C#CCO)ccc3N)cc2)cc1OC [Cpd 76, N-[2-amino-5-(3-hydroxyprop-1-yn-1-yl)phenyl]-4-{[(3,4-dimethoxyphenyl)amino]methyl}benzamide] | – |
| 1 to 20 | – | – | COc1ccc(NCc2ccc(C(=O)Nc3cc(Br)ccc3N)cc2)cc1OC [Cpd 87, N-(2-amino-5-bromophenyl)-4-{[(3,4-dimethoxyphenyl)amino]methyl}benzamide] | – |
| – | < 1 | < 1000 | Nc1ccc(-c2cccs2)cc1NC(=O)c1ccc(CN2CCOCC2)cc1 [Compound 242] | – |
| – | < 1 | < 1000 | Nc1ccc(-c2cccs2)cc1NC(=O)c1ccc2c(c1)OCCO2 [Compound 256b] | – |
| – | < 1 | < 1000 | Cn1cnc2cc(C(=O)Nc3cc(-c4cccs4)ccc3N)ccc21 [Compound 283] | – |
| > 20 | – | – | COc1ccc(NCc2ccc(C(=O)Nc3cccc(-c4cccs4)c3)cc2)cc1OC [Cpd 32, 4-{[(3,4-dimethoxyphenyl)amino]methyl}-N-[3-(2-thienyl)phenyl]benzamide] | – |
| – | < 1 | 1000 to 20000 | Cn1nnc2cc(C(=O)Nc3cc(-c4cccs4)ccc3N)ccc21 [Compound 286] | – |
| 1 to 20 | – | – | COc1ccc(NCc2ccc(C(=O)Nc3cc(Cl)c(F)cc3N)cc2)cc1OC [Cpd 35, N-(2-Amino-5-chloro-4-fluoro-phenyl)-4-[(3,4-dimethoxy-phenylamino)-methyl]-benzamide] | – |
| – | < 1 | < 1000 | Nc1ccc(-c2cccs2)cc1NC(=O)c1ccc2[nH]cnc2c1 [Compound 258d] | – |
| – | < 1 | < 1000 | COc1cc(OC)c2cc(C(=O)Nc3cc(-c4cccs4)ccc3N)oc2c1 [Compound 245e] | – |
| > 20 | – | – | COc1ccc(NCc2ccc(C(=O)Nc3csc(-c4cccs4)c3N)cc2)cc1OC [Cpd 62, N-(3-amino-2,2′-bithien-4-yl)-4-{[(3,4-dimethoxyphenyl)amino]methyl}benzamide] | – |
| > 20 | – | – | COc1ccc(NCc2ccc(C(=O)Nc3ccc(-c4cccs4)cc3[N+](=O)[O-])cc2)cc1OC [Cpd 15, 4-[(3,4-dimethoxy-phenylamino)-methyl]-N-(2-nitro-4-thiophen-2-yl-phenyl)-benzamide] | – |
| – | < 1 | 1000 to 20000 | Nc1ccc(-c2cccs2)cc1NC(=O)c1ccc(SC(F)(F)F)cc1 [Compound 143c] | – |

— US7868205B2, “Inhibitors of histone deacetylase” (MethylGene Inc., priority 2003, dated 2011)
